Reference: patent US4871727A, “Anti-inflammatory and antidegenerative compounds isolated from L-681,512” (Merck & Co, Inc., priority 1987, dated 1989)

What follows are compounds tested against T1, Human Polymorphonuclear Leukocyte Elastase (Homo sapiens, UniProt P08246) (assay: Inhibition of human polymorphonuclear leukocyte (PMN) elastase via hydrolysis of N-t-Boc-alanyl-alanyl-prolyl-alanine-p-nitroanilide (two point or "zero time" assay)). Settings: 50% inhibition of the enzyme activity 2 minutes after zero time; crude human PMN extract; 0.2 mM Boc-AAPAN, pH 7.5, 410 nm; read-out: ED50 (the source's name) (converted).
T1 construct: Crude extract of human polymorphonuclear leukocytes (PMN) containing elastase activity; endogenous in cells; host or cells: human polymorphonuclear leukocytes (crude extract)
T1 sequence (P08246 30-247 limits assumed): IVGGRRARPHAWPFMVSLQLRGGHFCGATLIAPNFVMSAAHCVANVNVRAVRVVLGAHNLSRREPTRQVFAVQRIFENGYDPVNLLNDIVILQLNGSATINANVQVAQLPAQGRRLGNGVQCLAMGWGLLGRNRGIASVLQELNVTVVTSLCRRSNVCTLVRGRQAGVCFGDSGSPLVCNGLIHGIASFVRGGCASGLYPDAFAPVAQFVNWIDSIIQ
Assay type: biochemical
Description: It is generally understood that the enzyme of interest is that enzyme against which the inhibitory activity of the fermentation broth samples are being determined and quantified (e.g., PMN elastase). Consequently, all of the remaining wells are charged with the same enzyme of interest. However, several enzymes of interest can be charged to a plurality of wells, and the wells grouped together to facilitate separate identification and assay. When this is done, separate control wells must then also be prepared to correspond to the different enzymes of interest.
The chromogenic medium is charged to all the wells at substantially the same time and the time of this addition is noted. This is the "zero time" mentioned earlier as it is from that moment that a predetermined time lapse is measured during which sufficient reaction between the fermentation broth samples and the enzyme of interest occurs to enable not only accurate screening of enzyme inhibitory activity, but also the degree of that activity. Naturally, the predetermined time lapse will differ with different enzymes and can be from about 1 minute to about 20 minutes, typically from about 2 minutes to about 10 minutes.
The chromogenic media typically used are aromatic nitro- containing compounds. Illustrative of such compounds are Boc-ala-ala-pro-ala-p-nitroanilide, -α-benzoyl-DL-arginine-p-nitroanilide, N-α-benzoyl-L-tyrosine-p-nitroanilide, and the like.
Using the two point or "zero time" assay method described above, the following protocol was employed:
Enzyme Assays for the Inhibition of Human Polymorphonuclear Leukocyte Elastase Via Hydrolysis of N-t-Boc-alanyl-alanyl-prolylalanine-p-nitroanilide
0.05M TES (N-tris[hydroxymethyl]methyl-2-amino-ethanesulfonic acid) Buffer, pH 7.5.
0.2 mM N-t-Boc-alanyl-alanyl-prolyl-alanine-p-nitroanilide (Boc-AAPAN).
To prepare substrate, the solid (m.w. 550) was first dissolved in 10.1 ml DMSO. Buffer at pH 7.5 was then added to a final volume of 100 ml.
Crude extract of human polymorphonuclear leukocytes (PMN) containing elastase activity.
Inhibitors (cephalosporin sulfone esters) to be tested dissolved in DMSO just before use.
To 1.0 ml of 0.2 mM Boc-AAPAN in a cuvette, 0.01-0.1 ml of DMSO with or without inhibitor was added. After mixing, a measurement was taken at 410 nm to detect any spontaneous hydrolysis due to presence of test compound. 0.05 Milliliters of PMN extract was then added and the ΔOD/min at 410 nm was measured and recorded. A Beckman model 35 spectrophotometer was used.
Results were reported as ED50, i.e., effective dosage in micrograms per milliliter (μg/ml) for 50% inhibition of the enzyme activity 2 minutes after zero time.
The elastase activity in the crude PMN extract may vary from one preparation to another. A control of each new batch is run, and the volume added in the assay procedure is adjusted according to activity.

Compound | IC50 [µM]
C=C(CCC(C)[C@H]1CC=C2C3=C([C@@H](OC(C)=O)[C@H](OC(C)=O)C21C)C1(C)C[C@@H](OC(C)=O)[C@H](OS(=O)(=O)O)C(C)(C)[C@@H]1CC3)C(C)C (some centres unmarked) [Compound 10] | 262
C=C(CCC(C)[C@H]1CC=C2C3=C([C@@H](O)[C@H](OC(C)=O)C21C)C1(C)C[C@@H](O)[C@H](OS(=O)(=O)O)C(C)(C)[C@@H]1CC3)C(C)C (some centres unmarked) [Compound 1] | 2.35
C=C(CCC(C)[C@H]1CCC2C3=C([C@@H](O)[C@H](OC(C)=O)C21C)C1(C)C[C@@H](O)[C@H](OS(=O)(=O)O)C(C)(C)[C@@H]1CC3)C(C)C (some centres unmarked) [Compound 2] | 2.51
C=C(CCC(C)[C@H]1CC=C2C3=C([C@@H](O)[C@H](O)C21C)C1(C)C[C@@H](O)[C@H](OS(=O)(=O)O)C(C)(C)[C@@H]1CC3)C(C)C (some centres unmarked) [Compound 11] | 3.44
C=C(CCC(C)[C@H]1CC=C2C3=C([C@@H](O)[C@H](OC(C)=O)C21C)C1(C)C[C@@H](O)[C@H](O)C(C)(C)[C@@H]1CC3)C(C)C (some centres unmarked) [Compound 5] | 1.75
